{"source": "patent US20170275249A1", "about": "“SMALL LIPOPEPTIDOMIMETIC INHIBITORS OF GHRELIN O-ACYL TRANSFERASE” (THE REGENTS OF THE UNIVERSITY OF CALIFORNIA, priority 2014, published 2017)", "key": {"mouse GOAT": {"target": "T1, mouse GOAT (Mus musculus, UniProt P0C7A3)", "T1 construct": "made in house; host or cells: Sf9 insect cells (baculovirus), membrane fractions", "T1 sequence (P0C7A3 1-435)": "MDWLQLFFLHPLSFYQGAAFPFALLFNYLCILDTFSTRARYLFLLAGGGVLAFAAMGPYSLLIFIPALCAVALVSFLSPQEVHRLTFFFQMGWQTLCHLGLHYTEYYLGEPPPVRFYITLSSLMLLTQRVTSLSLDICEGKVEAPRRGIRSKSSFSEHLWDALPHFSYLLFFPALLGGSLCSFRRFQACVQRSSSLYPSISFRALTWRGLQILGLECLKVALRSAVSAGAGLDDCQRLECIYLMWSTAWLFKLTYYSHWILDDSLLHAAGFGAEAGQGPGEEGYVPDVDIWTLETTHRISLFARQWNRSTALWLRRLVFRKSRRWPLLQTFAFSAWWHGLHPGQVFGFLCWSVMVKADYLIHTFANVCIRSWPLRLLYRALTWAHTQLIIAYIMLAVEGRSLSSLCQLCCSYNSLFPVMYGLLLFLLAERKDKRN", "assay": "ghrelin radio-octanoylation assay (Yang et al.), Sf9 membrane fractions", "format": "biochemical", "settings": "for GOAT-inhibiting activity in vitro: relative to Compound 1", "protocol": "In vitro activity was quantified using the octanoylation assay developed by Yang et al. (2008, Proc. Natl. Acad. Sci. USA 105:10750-10755). No pure or soluble form of GOAT that retains enzymatic activity is thus far available. Recombinant poly-His-tagged ghrelin was incubated with radiolabeled octanoyl CoA and membrane fractions isolated from Sf9 cells infected with a GOAT-encoding baculovirus. Recovery of acyl- and des-acyl ghrelin using a Ni^2+ affinity column was followed by scintillation counting to determine the extent of acyltransferase activity, which was reported as a percentage of control.\nThiosarcosine derived peptidomimetic Compound 1 (of Example 1.1) and truncated analog Compound 2 (of Example 1.2), which served as a negative control, were screened for GOAT-inhibiting activity using membrane fractions prepared from Sf9 cells infected with baculovirus encoding mouse GOAT as a source of the acyltransferase. The assay detected specific acyl transfer from tritiated octanoyl-CoA to recombinant His-tagged proghrelin."}, "[1]": {"assay": "stability in mouse plasma (LC/MS/MS)", "description": "(§1) (Taylor, M. S. et al., 2012, Methods in Enzymology 514:205-228.) For in vitro as well as in vivo pharmacokinetic analyses, inhibitor concentration was determined using LC/MS/MS.\n(§2) GOAT inhibitor (Compound 1) and control (Compound 2) were added to liver S9 fractions or mouse plasma and the concentrations of each compound over time were quantified using LC/MS/MS."}, "[2]": {"test_system": "GOAT/preproghrelin-expressing INS-1 cells", "assay": "acyl ghrelin production in intact cells, Western immunoblot", "format": "cell-based", "settings": "18 hours incubation", "protocol": "Molecular parameters for Compound 1 were well within those characteristics of orally bioavailable drugs. In INS-1 cell culture, compounds were administered to cultured INS-1 cells that had been engineered to express GOAT and preproghrelin. After incubating the cells in the presence of the compounds for 18 hours, the cells were lysed and ghrelin species (acyl ghrelin vs. total ghrelin) present in the lysates were quantified by Western immunoblot. […] Total ghrelin levels were unchanged irrespective of the inhibitor concentration that was present."}, "measured LogD": {"assay": "measured LogD", "format": "physicochemical"}, "oral bioavailability": {"assay": "oral bioavailability", "format": "in vivo"}, "[3]": {"test_system": "acyl ghrelin : total ghrelin ratio in serum", "assay": "time course of serum acyl ghrelin after IP administration", "format": "in vivo", "settings": "mice, 80 mg/kg IP, FIG. 3", "protocol": "Compound 1 was administered intraperitoneally (IP) to mice (dosed at 80 mg/kg) at time zero and blood samples were collected at indicated timepoints (see FIG. 3). Serum acyl ghrelin: total ghrelin ratios were determined using ELISA with antibodies specific for acyl or des-acyl ghrelin. Inhibitor concentrations were determined using LC/MS/MS detection. […] Reappearance of acyl-ghrelin tracked with the time-dependent change in inhibitor concentration in plasma."}, "[4]": {"assay": "stability in liver S9 fractions (LC/MS/MS)", "settings": "human liver S9 fractions", "description": "as §1, §2"}, "[5]": {"settings": "human", "description": "as §1, §2"}, "[6]": {"settings": "mouse plasma", "description": "as §1, §2"}, "[7]": {"settings": "Table 1, inhibitory activity against GOAT, cells printed in nM"}}, "note": "Like-named read-outs stand apart in the source and are kept apart here."}
{"molecule": "CCCC[C@H]1C[C@H](C(=O)NC[C@H]2CCCN2C(=O)[C@@H](NC(=S)CN)C(C)(C)C)C1", "note": "[Entry 26]", "values": [{"measurement": "IC50", "setting": "mouse GOAT; [7]", "result": 25, "unit": "nM"}]}
{"molecule": "(1s,3R)-3-BUTYL-N—(((R)-1-((S)-3,3-DIMETHYL-2-(2-(METHYLAMINO)ETHANETHIOAMIDO)BUTANOYL)PYRROLIDIN-2-YL)METHYL)CYCLOBUTANE CARBOXAMIDE HEMITARTRATE [Compound 1]", "values": [{"measurement": "Plasma t1/2", "setting": "[1]", "result": ">10.5", "unit": "h"}, {"measurement": "stability in mouse plasma", "setting": "[1]", "result": "stable"}, {"measurement": "concentration at which production of acyl ghrelin was inhibited", "setting": "[2]; FIG. 4", "result": "greater than 1 μM"}, {"measurement": "concentration at which production of acyl ghrelin was substantially completely blocked", "setting": "[2]; FIG. 4", "result": "above 5 μM"}, {"measurement": "total ghrelin levels", "setting": "[2]; irrespective of inhibitor concentration", "result": "unchanged"}, {"measurement": "Measured LogD", "setting": "measured LogD", "result": 1.71}, {"measurement": "IC50", "setting": "mouse GOAT; FIG. 2, tritiated octanoyl-CoA, His-tagged proghrelin", "result": "~30", "unit": "nM"}, {"measurement": "potency compared side-by-side with prior art GOAT inhibitors", "setting": "mouse GOAT; FIG. 6, versus compounds 3, 4, 5 and 6", "result": "by far the most potent inhibitor of GOAT"}, {"measurement": "oral bioavailability % F", "setting": "oral bioavailability", "result": "10-15%"}, {"measurement": "time at which acyl-ghrelin recovered", "setting": "[3]", "result": 3, "unit": "h"}, {"measurement": "acyl-ghrelin in circulation", "setting": "[3]; within minutes", "result": "near undetectable levels"}, {"measurement": "Liver S9 t1/2", "setting": "[4]", "result": 2.03, "unit": "h"}, {"measurement": "metabolism by liver S9 fractions", "setting": "[4]", "result": "slowly metabolized"}]}
{"molecule": "CCCCC1CC(C(=O)NC[C@H]2CCCN2C(=O)[C@@H](N)C(C)(C)C)C1.CCCCC1CC(C(=O)NC[C@H]2CCCN2C(=O)[C@@H](N)C(C)(C)C)C1.O=C(O)C(O)C(O)C(=O)O", "note": "(stereo partly drawn) [Compound 2, (1s,3R)—N—(((R)-1-((S)-2-AMINO-3,3-DIMETHYLBUTANOYL)PYRROLIDIN-2-YL)METHYL)-3-BUTYLCYCLOBUTANECARBOXAMIDE HEMITARTRATE]", "values": [{"measurement": "Liver S9 t1/2", "setting": "[5]", "result": 2.08, "unit": "h"}, {"measurement": "inhibition of acyl ghrelin biosynthesis", "setting": "[2]; FIG. 4", "result": "inactive"}, {"measurement": "Plasma t1/2", "setting": "[6]", "result": 1.52, "unit": "h"}, {"measurement": "GOAT-inhibiting activity in vitro", "setting": "mouse GOAT", "result": "inactive"}]}
{"molecule": "CCCC[C@H]1C[C@H](C(=S)NC[C@H]2CCCN2C(=O)[C@@H](NC(=S)CN)C(C)(C)C)C1", "note": "[Entry 16, (1s,3R)—N—(((R)-1-((S)-2-(2-AMINOETHANETHIOAMIDO)-3,3-DIMETHYLBUTANOYL)PYRROLIDIN-2-YL)METHYL)-3-BUTYLCYCLOBUTANECARBOTHIOAMIDE]", "values": [{"measurement": "IC50", "setting": "mouse GOAT; [7]", "result": 200, "unit": "nM"}]}
{"molecule": "CCCCC1CC(C(=O)NC[C@H]2CCCN2C(=O)[C@@H](N)C(C)(C)C)C1", "note": "(some centres unmarked) [Entry 2]", "values": [{"measurement": "IC50", "setting": "mouse GOAT; [7]", "result": "> 3000", "unit": "nM"}]}
{"molecule": "CCCC[C@H]1C[C@@H](C(=O)NCCN(C)C(=O)[C@@H](NC(=O)CN)C2CCCCC2)C1", "note": "[Entry 1]", "values": [{"measurement": "IC50", "setting": "mouse GOAT; [7]", "result": 2000, "unit": "nM"}]}
{"molecule": "C=CCOC(=O)NCC(=S)N[C@H](C(=O)N1CCC[C@@H]1CNC(=S)C1CC(CCCC)C1)C(C)(C)C", "note": "(some centres unmarked) [Entry 15]", "values": [{"measurement": "IC50", "setting": "mouse GOAT; [7]", "result": "> 3000", "unit": "nM"}]}
{"molecule": "CCCC[C@H]1C[C@@H](C(=S)NC[C@H]2CCCN2C(=O)[C@@H](NC(=O)CN)C2CCCCC2)C1", "note": "[Entry 20]", "values": [{"measurement": "IC50", "setting": "mouse GOAT; [7]", "result": 650, "unit": "nM"}]}
{"molecule": "CCCCC1CC(C(=S)NC[C@H]2CCCN2C(=O)[C@@H](NC(=S)CN)C(C)(C)C)C1", "note": "(stereo partly drawn) [inhibitor 10, (1s,3R)—N—(((R)-1-((S)-2-(2-AMINOETHANETHIOAMIDO)-3,3-DIMETHYLBUTANOYL)PYRROLIDIN-2-YL)METHYL)-3-BUTYLCYCLOBUTANECARBO-THIOAMIDE HEMITARTRATE]", "values": [{"measurement": "GOAT-inhibiting activity in vitro", "setting": "mouse GOAT", "result": "equally potent"}]}
{"molecule": "CCCC[C@H]1C[C@@H](C(=O)NC[C@H]2CCCN2C(=O)[C@@H](N)C2CCCCC2)C1", "note": "[Entry 9]", "values": [{"measurement": "IC50", "setting": "mouse GOAT; [7]", "result": "> 3000", "unit": "nM"}]}
{"molecule": "CCCC[C@H]1C[C@@H](C(=O)NC[C@H]2CCCN2C(=O)[C@@H](NC(=N)CN)C2CCCCC2)C1", "note": "[Entry 7]", "values": [{"measurement": "IC50", "setting": "mouse GOAT; [7]", "result": "> 3000", "unit": "nM"}]}
